Data taken from PubChem BioAssay (NCI).
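Five concentrations, 48 hours, 96-well plates. The concentration for 50% growth inhibition is given as GI50. TGI denotes the concentration required for complete inhibition of growth.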

Experiments:
Assay in all cases: NCI tumour cell line growth inhibition, 48 h
LXFL 529 NSCLC = tested on: LXFL 529 NSCLC
XF 498 CNS = tested on: XF 498 CNS
M19-MEL melanoma = tested on: M19-MEL melanoma
MCF7 breast = tested on: MCF7 breast
MDA-MB-231 breast = tested on: MDA-MB-231 breast
MDA-N = tested on: MDA-N
PC-3 prostate = tested on: PC-3 prostate

Compound	TGI (LXFL 529 NSCLC)	TGI (XF 498 CNS)	TGI (M19-MEL melanoma)	TGI (MCF7 breast)	TGI (MDA-MB-231 breast)	TGI (MDA-N)	TGI (PC-3 prostate)	GI50 (MCF7 breast)	GI50 (MDA-MB-231 breast)	GI50 (PC-3 prostate)
NC(=S)N/N=C1/C(=O)N(c2ccc(Cl)cc2Cl)C(=O)C(=O)C1c1nc2ccccc2s1 (stereo not drawn)	> 100 µM	> 100 µM	> 100 µM	–	–	–	–	–	–	–
COC(=O)C(Cl)=C1CC1	29.5 µM	88.7 µM	> 100 µM	–	–	–	–	–	–	–
CN(C)CCCc1c[nH]c2ccccc12	–	–	–	> 100 µM	> 100 µM	> 100 µM	> 100 µM	–	–	–
CN(C)CC1(C)CC/C(=C\c2ccccc2)C1=O (stereo not drawn)	–	> 100 µM	> 100 µM	–	–	–	–	–	–	–
Cc1ccc(S(=O)(=O)N2CCc3ccc(O)c4c3C2Cc2cc(Cl)ccc2-4)cc1 (stereo not drawn)	–	–	–	6.28 µM	4.74 µM	–	6.8 µM	1080 nM	1.21 µM	0.917 µM
OCC12C3C4C1C1C2C3C41CO (stereo not drawn)	> 100 µM	> 100 µM	> 100 µM	–	–	–	–	–	–	–
CCC(C)C(NC(=O)C1CCCN1C(=O)C(NC(=O)C(C)N)C(C)C)C(N)=O (stereo not drawn)	–	–	–	> 100 µM	> 100 µM	–	> 100 µM	> 100000 nM	> 100 µM	> 100 µM
O=C(Nc1c(O)[nH]c(=S)[nH]c1=O)c1ccc2ccccc2n1	> 100 µM	–	> 100 µM	–	–	–	–	–	–	–
COc1ccc(-c2nc(-c3nc4ccc(OC)cc4[nH]3)cc3c2[nH]c2ccccc23)cc1	–	–	–	> 100 µM	> 100 µM	–	> 100 µM	2550 nM	8.51 µM	1.52 µM
COP1(=O)Oc2ccccc2C(=O)C(C(F)(F)F)(C(F)(F)F)O1 (stereo not drawn)	> 100 µM	> 100 µM	> 100 µM	–	–	–	–	–	–	–
COc1ccc(C2=NN(C(C)=O)C(c3cn(-c4ccccc4)nc3-c3ccc(Cl)cc3)C2)cc1 (stereo not drawn)	–	–	–	> 100 µM	> 100 µM	–	> 100 µM	> 100000 nM	> 100 µM	> 100 µM
O=c1cnn2c(n1)sc1ccc3ccccc3c12	> 100 µM	> 100 µM	> 100 µM	–	–	–	–	–	–	–
Cc1ccc(Cl)c(NC(=O)C(=O)C(C(=O)c2ccncc2)C2OC(=O)c3ccccc32)c1 (stereo not drawn)	> 100 µM	> 100 µM	> 100 µM	–	–	–	–	–	–	–
COc1cc2nc(Nc3cccc(F)c3)nc(Nc3cc(C)[nH]n3)c2cc1OC	–	–	–	3.83 µM	3.42 µM	–	3.39 µM	1730 nM	1.74 µM	1.68 µM
COc1ccc(NC(=O)c2sc3nc(C)c(C(O)c4ccccc4)cc3c2N)cc1 (stereo not drawn)	–	–	–	54.2 µM	> 100 µM	–	> 100 µM	502 nM	2.96 µM	3.31 µM
O=c1c2ccccc2c2nc3ccccc3nc2n1C1CCCCC1	> 100 µM	–	> 100 µM	–	–	–	–	–	–	–
Nc1ncnc2c1ncn2C1OC(CO)=CC1O (stereo not drawn)	–	–	–	> 37.5 µM	> 37.5 µM	> 37.5 µM	> 37.5 µM	–	–	–
O=C(O)CC/C(=N\Nc1nsc2ccccc12)c1ccc(Cl)cc1	41.1 µM	–	> 100 µM	> 100 µM	93.2 µM	> 100 µM	> 100 µM	–	–	–
Cc1ccc(C)c(-c2csc(Nc3ccc(C)c(C)c3)n2)c1	–	–	–	> 100 µM	> 100 µM	–	> 100 µM	35900 nM	> 100 µM	7 µM
C[C@@H]1C=C2C(=O)O[C@@H]3CC[C@H](C1)[C@]23O	–	–	–	13.3 µM	17.4 µM	–	14.9 µM	2500 nM	3.96 µM	3.68 µM
Cc1cc(Cl)ccc1N=C1NC(=O)C(CC(=O)Nc2ccc(Cl)cc2Cl)S1 (stereo not drawn)	> 100 µM	> 100 µM	> 100 µM	–	–	–	–	–	–	–
Cc1cc(Cl)cc2c1NC(=O)C2(O)C(C)C(=O)c1ccc(Cl)cc1 (stereo not drawn)	> 100 µM	> 100 µM	26.2 µM	–	–	–	–	–	–	–
Cc1ccc(C)c(NC(=O)CC/C(=N\NC(=O)C(N)=O)C(C)C(=O)c2ccc(O)cc2)c1 (stereo not drawn)	> 100 µM	–	> 100 µM	–	–	–	–	–	–	–
CCOC(=O)c1cn(Cc2ccccc2)c(=O)n1Cc1ccccc1	> 100 µM	> 100 µM	> 100 µM	–	–	–	–	–	–	–
COc1ccc2c(c1)CCC1C2CC[C@]2(C)/C(=N/OC(=O)Cc3ccccc3)CCC12 (stereo partly drawn)	–	–	–	54.5 µM	38.6 µM	–	59.4 µM	24700 nM	17.3 µM	18.5 µM
